The values that follow come from US5385888A, “Class I MHC modulation or surface receptor activity” (The Regents of the University of California, priority 1993, dated 1995).

pEC50: −log10 of the molar value. Where a SMILES comes first, the peptide text is derived from it.

The subject of assay [1] is rat adipocytes. In kind it is cell-based. The method, then:
(§1) Preparation of Adipocytes--The procedure has been described in detail previously. Briefly, male Wistar rats (100-150 g) were decapitated, and the epididymal fat pads removed and minced with scissors into KRHB (Krebs-Ringer/HEPES/Bovine serum albumin (BSA) buffer: 80 mM NaCl, 4.7 mM KCl, 2.5 mM CaCl2, 1.2 mM MgSO4, 50 mM HEPES, 5% BSA (Sigma, radioimmunoassay grade), pH 7.2) containing 5 mM D-glucose and 1 mg/ml collagenase (type I, Worthington) and digested (1 hr, 37° C.) with gentle shaking (250 cycles per minute). The adipocytes were washed five times in KRHB (each wash in a volume ten times the cell volume). The adipocyte layer was finally diluted with KRHB to a 10% (v/v) suspension as estimated by the volume of packed cells (lipocrit).
Glucose uptake in vitro--The uptake of [^14 C]glucose (D-[U-^14 C]glucose, Amersham, (300 Ci/mol)) by isolated rat adipocytes was measured as follows unless otherwise stated: 50 μl adipocyte cell suspension was pipetted into "Nunc-Immuno tube minisorp" (Nunc, Denmark) and preincubated at 37° C. with gentle shaking (225 cycles per minute) for 30 min. Hormones and peptides were added in 50 μl KRHB and incubated for 30 min at 37° C. Before addition to cells, all solutions were neutralized to pH 7.2. [^14 C]glucose tracer (~100,000 dpm) was added and the incubation continued for another 20 minutes at 37° C. The assay was terminated by centrifugation of 100 μl sample on top of 250 μl silicone oil (Thomas Scientific) in 500 μl tubes in a microfuge (10,000×g) for 1 min. The tube was cut just below the adipocyte layer and the amount of radioactivity in the adipocytes determined by scintillation counting. The precise concentration of [^14 C]glucose was calculated from total counts added.

In assay [2] the target is T1, purified human IR (Homo sapiens, UniProt P06213).
T1 construct: The product was a tetramer with two heavy chains, each ~130 kDa, and two light chains, each ~90 kDa; from tissue; host or cells: human placenta
The assay is described as follows: Tyrosine kinase activity of purified IR (autophosphorylation). In kind it is biochemical. The method, then:
The purified human IR and the cloned cytoplasmic kinase domain (IRKD) have been described (Ellis et al., (1988) Virology 62:1634-39; Roth et al., (1986) J. Biol. Chem. 261:3753-57). Briefly, the human IR was purified from placenta by immunoaffinity columns, using monoclonal antibodies and binding of IR to wheat germ agglutinin. The product was a tetramer with two heavy chains, each ~130 kDa, and two light chains, each ~90 kDa. […] When peptide was used, it was added in 5.0 μl, the volume adjusted to 20 μl by adding buffer, and the mixture incubated (1 hr, 4° C.). After incubation, 10 μl of a solution containing 2.5 μCi ^32 P-labeled ATP (3,000 Ci/mmol; γ-labeled; Amersham) 50 mM HEPES, pH 7.6, 150 mM NaCl, 0.1% Triton X-100, 37.5 μM unlabeled ATP, 15 mM MgCl2, and 6 mm MnCl2 was added to a final volume of 30 μ l. The mixture was then incubated for 30 min. at 24° C. After incubation, 15 μl sample buffer was added, and the sample was boiled for 5 min., and run on 10% SDS-PAGE overnight. The gel was dried, and autoradiograms processed with an exposure time of 5-10 hr. For quantitative estimates the β-subunit band of IR and the IRKD bands were cut out and counted dry (Cerenkov) in a scintillation counter.

Assay [3] concerns the target T2, EGFR (Rattus norvegicus, UniProt G3V6K6).
T2 construct: male Wistar rats (100-150 g) were decapitated, and the epididymal fat pads removed; endogenous in cells; host or cells: freshly isolated epididymal adipocytes of male Wistar rats
Put plainly: Cell-associated 125I-labeled EGF on rat adipocytes. The format is binding. The method, then:
as §1
Cell-associated ^125 I-labeled EGF--50 μl adipocyte cell suspension was pipetted into "Nunc-Immuno tube minisorp" (Nunc, Denmark) and preincubated at 37° C. with gentle shaking (225 cycles per minute) for 30 min. […] The assay was terminated by centrifugation of 75 μl sample as described above for glucose uptake, and the cell-associated as well as the free ^125 I-labeled EGF was determined by γ-counting. […] The data were calculated as specific cell-associated ^125 I-labeled EGF and the maximal value was in each experiment set to 100%.

In assay [4] the test system is rats. Put plainly: Blood glucose levels in whole rats after i.v. injection. The format is in vivo, rat. As to conditions: insulin alone 10 μg/kg i.v. On the procedure: The effect of D^k -(61-85) in whole rats was determined. […] All animals were starved 16-20 hrs. prior to experimentation. Each determination was based on results as obtained from 42 rats, where the same rats were used in the four treatment schedules. The schedules were a control, a peptide by itself, insulin by itself, and insulin plus peptide. […] The peptide, at about 20 min., the blood glucose had dropped to about 65% of its original value and then slowly rose back to about the original value at about 90 min. and was maintained about the same level.

What is called pEC50 is the negative decadic logarithm of the EC50, by convention in mol/L. Consider `CC[C@H](C)[C@H](NC(=O)[C@H](CCC(N)=O)NC(=O)[C@@H](NC(=O)[C@H](CCC(=O)O)NC(=O)[C@H](CCCNC(=N)N)NC(=O)[C@@H](N)CCC(=O)O)[C@@H](C)O)C(=O)N[C@@H](C)C(=O)N[C@@H](CCCCN)C(=O)NCC(=O)N[C@@H](CC(N)=O)C(=O)N[C@@H](CCC(=O)O)C(=O)N[C@@H](CCC(N)=O)C(=O)N[C@@H](CO)C(=O)N[C@@H](Cc1ccccc1)C(=O)N[C@@H](CCCNC(=N)N)C(=O)N[C@H](C(=O)N[C@@H](CC(=O)O)C(=O)N[C@@H](CC(C)C)C(=O)N[C@@H](CCCNC(=N)N)C(=O)N[C@H](C(=O)N[C@@H](CC(C)C)C(=O)N[C@@H](CC(C)C)C(=O)N[C@@H](CCCNC(=N)N)C(=O)N[C@@H](Cc1ccc(O)cc1)C(=O)N[C@@H](Cc1ccc(O)cc1)C(=O)O)[C@@H](C)O)C(C)C` [D^k-(61-85)] (H-ERETQIAKGNEQSFRVDLRTLLRYY-OH), for which, in assay [1], the pEC50 is 4.82 to 5.00.
Regarding “ACTH-(1-24): human ACTH-(1-24), routine control peptide, Peninsula Laboratories”, the “Substrate for IR tyrosine Kinase” value in assay [2] is on record as “None of the control peptides (e.g. ACTH-(1-24) are substrates”.
Consider “EGF: epidermal growth factor (mouse), Collaborative Research”, for which the “Glucose uptake above basal” value in assay [1] (EGF alone) is ~ 50%. Besides, the “Apparent affinity of specific cell-associated EGF” value in assay [3] was “low nanomolar range”.
As to PDGF, the “Effect on glucose uptake in adipocytes” value in assay [1] (PDGF alone) is on record as “no effect”.
For “TGFα: TGFα (rat), Peninsula Laboratories”, the “[14C]glucose uptake above basal” value in assay [1] (50 nM TGFα alone) is ~ 50%.
With “insulin: unlabeled porcine insulin (NOVO)”, the pEC50 in assay [2] (insulin as stimulus) was ~8.52. For the same compound, the “Blood glucose course compared with peptide alone” value in assay [4] is on record as “A similar result”.
